Broadly, the EC50 is the concentration giving half of the maximal effect. The low end stands for an effect from little substance, the high end for a need for much substance.

For this experiment, the target named is T1, Or10a/Orco (Drosophila melanogaster, UniProt Q9VYZ1).
T1 construct: his-tag; made in house; host or cells: baculovirus-infected Sf9 cells
T1 sequence (Q9VYZ1 1-406): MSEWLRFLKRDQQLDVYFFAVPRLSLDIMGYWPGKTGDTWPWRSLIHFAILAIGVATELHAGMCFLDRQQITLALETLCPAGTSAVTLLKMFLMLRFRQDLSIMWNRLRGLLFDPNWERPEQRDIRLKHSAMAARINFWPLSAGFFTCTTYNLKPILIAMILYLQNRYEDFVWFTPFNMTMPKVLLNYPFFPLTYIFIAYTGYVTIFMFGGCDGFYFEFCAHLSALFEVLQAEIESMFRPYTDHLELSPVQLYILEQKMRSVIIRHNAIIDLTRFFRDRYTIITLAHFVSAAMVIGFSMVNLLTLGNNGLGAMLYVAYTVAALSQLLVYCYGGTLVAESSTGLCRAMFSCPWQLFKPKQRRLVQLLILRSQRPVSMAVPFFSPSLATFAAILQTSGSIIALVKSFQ
T1 sequence (Q9VNB5 1-486 partner): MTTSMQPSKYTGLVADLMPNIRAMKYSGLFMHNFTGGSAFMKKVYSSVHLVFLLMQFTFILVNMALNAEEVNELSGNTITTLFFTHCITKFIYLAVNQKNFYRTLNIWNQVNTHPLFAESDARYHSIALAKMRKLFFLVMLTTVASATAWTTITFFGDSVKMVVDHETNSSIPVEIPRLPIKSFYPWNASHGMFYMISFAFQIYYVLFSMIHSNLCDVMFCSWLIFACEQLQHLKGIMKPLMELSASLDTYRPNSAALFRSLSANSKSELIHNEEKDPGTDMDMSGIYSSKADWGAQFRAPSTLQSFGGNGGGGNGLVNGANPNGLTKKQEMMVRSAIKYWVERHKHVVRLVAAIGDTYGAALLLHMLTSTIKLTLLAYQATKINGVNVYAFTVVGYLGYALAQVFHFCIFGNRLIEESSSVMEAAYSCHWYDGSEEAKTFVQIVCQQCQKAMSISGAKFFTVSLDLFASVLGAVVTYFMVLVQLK
Description: GFET sensor, Or10a/Orco liposomes. It counts as biochemical. The settings on record: Table 4, GFET. The source says: The GFETs used in this study were fabricated from a predeposited graphene film on 300 nm SiO2 coated Si substrate from ACS Suppliers, USA. The FETs consist of a channel with dimensions of 100 μm width and […]. The key steps involved in fabricating the GFET on a Si/SiO2 substrate is schematically illustrated in FIG. 12. The source and drain electrodes were defined by photolithography and formed by successive deposition of Cr and Au. Both the drain and source electrodes were then encapsulated using AZ1518 photoresist and a channel with dimensions of 100 μm width and 10 μm length was left open to the environment for gating and functionalisation.
The OR liposomes were functionalised onto the graphene surface via a non-covalent route using PBASE as the molecular linker as shown in FIG. 13. The OR liposomes were diluted at 1:10 ratio with 1×PBS (pH7.4). The cleaned GFETs were immersed in 1 mM PBASE solution in methanol for 1 hour. […]
Electrical sensor measurements of OR liposome functionalised GFETs were carried out using top liquid gate morphology as shown in the schematic in FIG. 15 (a). […] The transfer characteristics of the different graphene FETs (FIG. 15 (b) to (g)) were measured at Vds=1 mV while the liquid gate voltage Vlg was swept from −0.5 V to 1 V with an interval of 20 mV. […]

As for `COC(=O)c1ccccc1O` [methyl salicylate], the “Detection Range” value was 10^−13-10^−8 M and a half-maximal response (EC50) required 2.07 pM.

For the origin of these results see patent US20210255184A1, “Biosensor Device and Methods” (The New Zealand Institute for Plant and Food Research …, priority 2018, published 2021).
